Experiments:
Male Fl b hamsters = assay: Example 4: regression of preformed atherosclerosis in hamsters (Oil Red O stained area); type: in vivo; conditions: for Stained Area ORO: aortic arch, 4 weeks, control 1.82 ± 0.44
Description: Synergism of HMG CoA reductase inhibitors and thiazolidinedione insulin sensitizers was examined by another regression model, i.e. the regression of preformed atherosclerosis in hamsters. Male Fl b hamsters (weight about 130 g,) were given a diet containing 0.05% cholesterol for 13 weeks. They were grouped randomly (2-7 animals per group), and then the test samples were administered for 4 weeks while the hamsters were given a normolipidaemic diet. Pravastatin and fluvastatin were mixed with drinking water at the dose of 3 mg/kg and 1.5 mg/kg, respectively, while troglitazone was mixed with the diet at the dose of 30 mg/kg or 100 mg/kg.
In the case of the combination groups, the dosage was 3 mg/kg+30 mg/kg or 3 mg/kg+100 mg/kg for the pravastatin+troglitazone group, and 1.5 mg/kg+30 mg/kg for the fluvastatin+troglitazone group.
Namely, the aortic arch was stained with ORO to prepare en face specimens. The percentage area which was positive to the ORO stain over the whole area was measured to represent the degree of aortic lesion.

[1] = tested on: Male New Zealand white rabbits; assay: Example 3: regression of established atherosclerotic lesions in the cholesterol-fed rabbit model; type: in vivo; conditions: for Rate of lesion area, against the control group: figure in parentheses; for Rate of lesion area: thoracic aorta, two months, mean ± standard error, control 29 ± 20
Description: The rabbits were grouped randomly (3-9 animals per group) and the test samples were administered orally for two months, while they were fed with a normolipidaemic diet. […] The results are shown in terms of the percentage of lesion area in the thoracic aorta.

[2] = Example 2: serum cholesterol in WHHL rabbits; type: in vivo, Male WHHL rabbits; conditions: Groups C and D (pioglitazone 20 mg/kg; Compound A 10 mg/kg)
Description: (§1) Each test compound was administered for eight months to the rabbits in the form of an aqueous suspension (0.5% carboxymethylcellulose added). In the control group, a 0.5% carboxymethylcellulose solution only was administered.

WHHL rabbits [3] = assay: Example 2: average thickening of intima in aorta; type: in vivo, Male WHHL rabbits; parameters: Average thickening of intima, Aortic Arch, percentage against the control group / Average thickening of intima, Total Aorta, percentage against the control group: concentration or dose not given beside the values
Description: as §1
The values actually measured are represented as the mean value plus or minus a standard error (μm). The numbers in parentheses represent the percentage intimal thickening against the control group. A significant difference was observed between Groups D and F at the aortic arch, and between Groups C and E and between Groups D and F over the total aorta (p<0.05) under the Mann-Whitney's U-Test.
The average thickening of the intima is calculated by the cross-sectional area of the aortic tunica intima one section from the arch and two sections from the thoracic and abdominal portions, divided by the length of the tunica media.

WHHL rabbits [4] = assay: Example 2: incidence and degree of xanthoma of the four legs; type: in vivo, Male WHHL rabbits; parameters: Frequency of massive xanthoma: unit not given here
Description: as §1
The incidence and the degree of xanthoma of the four legs were measured.

WHHL rabbits [5] = assay: Example 2: percentage area covered by lesions, aortic arch and whole aorta; type: in vivo, Male WHHL rabbits; parameters: Lesion Area, Aortic Arch, percentage against the control group / Lesion Area, Total Aorta, percentage against the control group: concentration or dose not given beside the values; conditions: oral, eight months
Description: as §1
The values actually measured are represented by the mean value plus or minus standard error. The numbers in parentheses represent the percentage lesion area against the control group.
*p<0.05, **p<0.01; significant difference against the control group under the [Mann-Whitney's U-Test A significant difference (p<0.05) was observed between Groups B and F, between Groups C and E and between Groups D and F at the aortic arch, and between Groups C and E over the total aorta.

WHHL rabbits [6] = assay: Example 2: aortic cholesterol content; type: in vivo, Male WHHL rabbits
Description: as §1
The aortic cholesterol content was measured The tunica media and tunica intima at the aortic arch and at the thoracic and abdominal aorta were peeled away with tweezers and cut into pieces. The pieces were extracted with a 2:1 by volume mixture of chloroform and methanol.
The chloroform phase was separated and evaporated to dryness and the residue was dissolved in isopropanol. The total cholesterol and the free cholesterol were measured by a conventional enzymatic method.
Data are expressed by the mean plus or minus standard error (mg/g tissue). The values in parentheses indicate the percentage against the control. A significant difference against the control group was observed by the unpaired student t-test: […]

WHHL rabbits [7] = assay: Example 1: incidence of xanthoma in the digital joints of WHHL rabbits; type: in vivo
Description: (§2) WHHL rabbits [2-3 months of age, the Watanabe heritable hyperlipidemic rabbit described in Biochimica et Biophysica Acta, 960, 294-302 (1988)] were randomly assigned to a control group (7 animals, group A), a group receiving pravastatin alone (5 animals, Group B), a group receiving troglitazone alone (7 animals, Group C), and a group receiving a combination of both active substances (6 animals, Group D). Pravastatin was administered orally by gavage at a dose of 50 mg/kg/day once-daily and troglitazone was given in the diet, containing 100 mg/kg of the substance for 32 weeks. The ingested amount was limited to a daily 120 g per rabbit. Blood was withdrawn from the animal immediately before starting the study and 4, 8, 12, 16, 20, 24, 28 and 32 weeks after starting the study and the total cholesterol levels (mg/dl) were determined for each blood sample. The levels are reported as a percentage (%) of the levels measured immediately before starting the study. The animals were sacrificed and necropsied at week 32 to examine (a) the percent lesion area (%) in the total, thoracic or abdominal portion of the aorta; (b) the stenosis (%) of the coronary arteries and (c) the incidence (%) of xanthoma in the digital joints.
(§3) The values actually measured are represented as an average value±standard error in those Tables.

[8] = Example 1: plasma total cholesterol in WHHL rabbits; type: in vivo; conditions: pravastatin 50 mg/kg/day oral gavage, troglitazone in diet containing 100 mg/kg
Description: as §2

WHHL rabbits [9] = assay: Example 1: percent lesion area of the aorta in WHHL rabbits; type: in vivo; conditions: week 32, mean ± standard error, pravastatin 50 mg/kg/day, troglitazone in diet containing 100 mg/kg, * p < 0.05 vs control
Description: as §2, §3

WHHL rabbits [10] = assay: Example 1: stenosis of the coronary arteries in WHHL rabbits; type: in vivo; conditions: week 32
Description: as §2, §3

[11] = pravastatin 3 mg/kg, fluvastatin 1.5 mg/kg, troglitazone 30 mg/kg alone, combinations
[12] = oral, eight months, control 100 (14/14), *p < 0.05, **p < 0.01 vs control

## CC(C)n1c(/C=C/C(O)CC(O)CC(=O)O)c(-c2ccc(F)cc2)c2ccccc21 (centres unmarked) [Fluvastatin]
Male Fl b hamsters; 1.5 mg/kg
  Stained Area, % of Control: 96%
Male Fl b hamsters; 1.5 mg/kg in drinking water
  Stained Area ORO: 1.74 ± 0.49%
Male Fl b hamsters; [11]
  regression of aortic lesions: no regression of aortic lesions
[1]; 0.08 mg/kg (as printed in Table 9)
  Rate of lesion area, against the control group: 93
[1]; 1.5 mg/kg
  Rate of lesion area, against the control group: 134
[1]; 0.08 mg/kg (as printed in Table 9) oral
  Rate of lesion area: 27 ± 9%
[1]; 1.5 mg/kg oral
  Rate of lesion area: 39 ± 16%

## CCc1ccc(CCOc2ccc(CC3SC(=O)NC3=O)cc2)nc1 (centres unmarked) [Pioglitazone, 5-{4-[2-(5-ethylpyridin-2-yl)ethoxy]benzyl}-2,4-thiazolidinedione]
[2]
  reduction of the serum cholesterol levels: no reduction
WHHL rabbits [3]; combinations compared with Groups C and D
  suppression of intimal thickening: no suppression of hypertrophy
WHHL rabbits [3]; number in parentheses
  Average thickening of intima, Aortic Arch, percentage against the control group: 103%
  Average thickening of intima, Total Aorta, percentage against the control group: 115%
WHHL rabbits [3]; oral, eight months, pravastatin 50, pioglitazone 20, Compound A 10 mg/kg, mean ± standard error, control 154 ± 33
  Average thickening of intima in aorta, Total Aorta: 177 ± 26 μm
WHHL rabbits [3]; oral, eight months, pravastatin 50, pioglitazone 20, Compound A 10 mg/kg, mean ± standard error, control 237 ± 63
  Average thickening of intima in aorta, Aortic Arch: 245 ± 37 μm
WHHL rabbits [4]; control 57, *p < 0.05, **p < 0.01 vs control
  Frequency of massive xanthoma: 68
WHHL rabbits [4]; forelegs and hindlegs
  incidence of xanthoma: slightly less frequent incidence of xanthoma
WHHL rabbits [4]; number of legs, control 0
  Distribution of severity of lesion: (-) no lesions: 2
WHHL rabbits [4]; number of legs, control 6
  Distribution of severity of lesion: (+++) severe lesion: 8
WHHL rabbits [4]; number of legs, control 10
  Distribution of severity of lesion: (++) moderate lesion: 11
WHHL rabbits [4]; number of legs, control 12
  Distribution of severity of lesion: (+) slight lesion: 7
WHHL rabbits [4]; [12]
  Incidence of xanthoma, Forelegs: 100%
  Incidence of xanthoma, Hindlegs: 86%
WHHL rabbits [4]; oral, eight months, control 100 (28/28), *p < 0.05, **p < 0.01 vs control
  Incidence of xanthoma, Total: 93%
WHHL rabbits [5]; number in parentheses
  Lesion Area, Aortic Arch, percentage against the control group: 88%
  Lesion Area, Total Aorta, percentage against the control group: 108%
WHHL rabbits [5]; pravastatin 50, pioglitazone 20, Compound A 10 mg/kg, mean ± standard error, *p<0.05, **p<0.01 vs control
  Lesion Area, Total Aorta: 54 ± 8%
WHHL rabbits [5]; pravastatin 50, pioglitazone 20, Compound A 10 mg/kg, mean ± standard error, control 82 ± 5, *p<0.05, **p<0.01 vs control
  Lesion Area, Aortic Arch: 72 ± 10%
WHHL rabbits [6]; mean ± standard error, control 5.3 ± 1.7
  Cholesterol level of Thoracic and Abdominal Aorta, Esterified: 10.5 ± 3.8 mg/g tissue
WHHL rabbits [6]; mean ± standard error, control 6.5 ± 1.4, *p < 0.05
  Cholesterol Content of Aortic Arch, Esterified: 6.6 ± 2.7 mg/g tissue
WHHL rabbits [6]; mean ± standard error, control 14.8 ± 2.3, *p < 0.05 vs control
  Cholesterol level of Thoracic and Abdominal Aorta, Free: 23.4 ± 3.8 mg/g tissue
WHHL rabbits [6]; mean ± standard error, control 20.1 ± 2.3, *p < 0.05, **p < 0.02 vs control
  Cholesterol level of Thoracic and Abdominal Aorta, Total: 33.9 ± 7.3 mg/g tissue
WHHL rabbits [6]; mean ± standard error, control 20.6 ± 2.9
  Cholesterol Content of Aortic Arch, Free: 26.9 ± 2.3 mg/g tissue
WHHL rabbits [6]; number in parentheses
  Cholesterol Content of Aortic Arch, Esterified, percentage against the control: 102%
  Cholesterol Content of Aortic Arch, Free, percentage against the control: 131%
  Cholesterol Content of Aortic Arch, Total, percentage against the control: 124%
  Cholesterol level of Thoracic and Abdominal Aorta, Esterified, percentage against the control: 198%
  Cholesterol level of Thoracic and Abdominal Aorta, Free, percentage against the control: 158%
  Cholesterol level of Thoracic and Abdominal Aorta, Total, percentage against the control: 169%

## Cc1c(C)c2c(c(C)c1O)CCC(C)(COc1ccc(CC3SC(=O)NC3=O)cc1)O2 (centres unmarked) [Troglitazone, 5-{4-[(6-hydroxy-2,5,7,8-tetramethyl-chroman-2-yl)methoxy]benzyl}-2,4-thiazolidinedione]
WHHL rabbits [7]; week 32, control 100 (14/14)
  Incidence of xanthoma, Foreleg: 86%
  Incidence of xanthoma, Hind leg: 29%
WHHL rabbits [7]; week 32, control 100 (28/28)
  Incidence of xanthoma, Total: 57%
[8]; week 4
  total cholesterol level, % of level before starting the study: 88%
[8]; week 8
  total cholesterol level, % of level before starting the study: 89%
[8]; week 12
  total cholesterol level, % of level before starting the study: 78%
[8]; week 16
  total cholesterol level, % of level before starting the study: 83%
[8]; week 20
  total cholesterol level, % of level before starting the study: 72%
[8]; week 24
  total cholesterol level, % of level before starting the study: 73%
[8]; week 28
  total cholesterol level, % of level before starting the study: 77%
[8]; week 32
  total cholesterol level, % of level before starting the study: 76%
Male Fl b hamsters; 30 mg/kg
  Stained Area, % of Control: 109%
Male Fl b hamsters; 100 mg/kg
  Stained Area, % of Control: 58%
Male Fl b hamsters; 30 mg/kg in diet
  Stained Area ORO: 1.99 ± 0.40%
Male Fl b hamsters; 100 mg/kg in diet
  Stained Area ORO: 1.05 ± 0.64%
Male Fl b hamsters; [11]
  regression of aortic lesions: no regression of aortic lesions
Male Fl b hamsters; troglitazone alone, 100 mg/kg
  regression of aortic lesions: regression was observed
WHHL rabbits [9]; control 29.9 ± 4.4
  Lesion area, Abdominal aorta: 27.6 ± 7.0%
WHHL rabbits [9]; control 65.7 ± 3.9
  Lesion Area, Total Aorta: 51.7 ± 7.7%
WHHL rabbits [9]; control 79.3 ± 5.4
  Lesion area, Thoracic aorta: 57.9 ± 9.9%
[1]; 10 mg/kg
  Rate of lesion area, against the control group: 79
[1]; 10 mg/kg oral
  Rate of lesion area: 23 ± 7%
WHHL rabbits [10]; control 13
  Coronary stenosis, RCA (right coronary artery): 7%
WHHL rabbits [10]; control 24
  Coronary stenosis, LAD (left anterior descending artery): 11%
WHHL rabbits [10]; control 40
  Coronary stenosis, LSP (left septal artery): 31%
WHHL rabbits [10]; control 47
  Coronary stenosis, LCX (left circumflex artery): 39%
WHHL rabbits [10]; control 61
  Coronary stenosis, MLC (main left coronary artery): 59%
WHHL rabbits [10]; control 79
  Coronary stenosis, MRC (main right coronary artery): 83%

Reference: US5798375A, “Treatment of arteriosclerosis and xanthoma” (Sankyo Company, Limited, priority 1995, dated 1998)
